Measured values taken from patent publication US4963526A, “Oral insulin and a method of making the same” (priority 1988, dated 1990).

System: white laboratory rats
Test: Blood glucose level in rats before and three hours after administration of the oral insulin preparation
Format: in vivo
Conditions: white laboratory rat, 5 units of bovine insulin, three hours after administration
Protocol: Two white laboratory rats, weighing 177 and 197 grams, respectively, were used in this experiment. One rat was administered a preparation of oral insulin according to the present invention containing 5 units of insulin; a formulation of the oral insulin according to the present invention containing 10 units of bovine insulin was administered to the second rat. Blood samples were drawn from each animal before and three hours after administration of the oral insulin preparation. The results given below are expressed as the percentage of the pre-experiment blood glucose level.
One white laboratory rat weighing 181 grams received a non-encapsulated preparation containing 5 units of free bovine insulin. This animal served as the control. After three hours, blood glucose level was 98.7% of the pre-experiment blood glucose level.

Substance: free bovine insulin: non-encapsulated preparation containing 5 units of free bovine insulin; served as the control
- blood glucose level as percentage of the pre-experiment (initial) blood glucose level: 98.7 % of initial blood glucose lev
